Target: T1, His-His-USP7 (aa208-560, |C315A|) (Homo sapiens, UniProt Q93009, C315A)
T1 construct: His-His-USP7 (aa208-560, |C315A|); His-His (N)
Assay: Evaluation of the inhibition of USP7 by the Fluorescence Intensity (FLINT) readings
Type: biochemical
Conditions: 0.25 nM His-His-USP7, compound incubated 60 minutes at 30° C., 500 nM Ubiquitin-Rhodamine-110 substrate; 50% reduction in kinetic rate
Experimental: USP7 activity was measured using Rhodamine-110 c-terminal labelled Ubiquitin as a substrate (UbiQ Bio). Incubation with USP7 results in the release of Rhodamine-110 leading to an increase in fluorescence which can be used in the continuous measurement of USP7 activity.
The USP7 reactions were performed in a 50 μL volume, in 384 well black solid low binding plates (Corning #3575). The reaction buffer consisted of 100 mM Bicine pH 8.0, 0.01% TritonX100, 1 mM TCEP, and 10% DMSO.
0.25 nM His-His-USP7 (aa208-560, |C315A|) was incubated with compound (final concentration 10% DMSO) for 60 minutes at 30° C. The reaction was then initiated by the addition of 500 nM Ubiquitin-Rhodamme-110 substrate and the plate read every 3 minutes for 21 minutes to measure the release of Rhodamine-110. Fluorescence Intensity (FLINT) readings were measured using a […] plate reader (Ex.485 nm, Em.535 nm).
The inhibition of increasing doses of compound was expressed as a percentage reduction in kinetic rate compared to the kinetic rates established between ‘DMSO only’ and ‘total inhibition’ controls (no USP7). The inhibitory concentrations that gave a 50% reduction in kinetic rate (IC50) were determined, from 11-point dose response cures, in XL-Fit using a 4-Parameter Logistic Model 205 (Sigmoidal Dose-Response Model).

T1 sequence (Q93009 208-560 C315A): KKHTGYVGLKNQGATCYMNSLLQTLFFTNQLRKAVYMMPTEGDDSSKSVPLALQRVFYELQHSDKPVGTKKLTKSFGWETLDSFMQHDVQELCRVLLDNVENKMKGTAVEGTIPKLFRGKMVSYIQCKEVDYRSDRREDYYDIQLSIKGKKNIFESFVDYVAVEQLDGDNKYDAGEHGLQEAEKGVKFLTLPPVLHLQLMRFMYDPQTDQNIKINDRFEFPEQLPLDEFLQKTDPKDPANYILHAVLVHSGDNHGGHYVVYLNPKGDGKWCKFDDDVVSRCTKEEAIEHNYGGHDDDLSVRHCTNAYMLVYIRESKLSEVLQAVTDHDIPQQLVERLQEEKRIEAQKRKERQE

Row | IC50 | SMILES
1 | 716 nM | Nc1c(Oc2cccc(S(F)(F)(F)(F)F)c2)ncn(CC2(O)CCN(C(=O)[C@@H]3CCC(F)(F)C[C@H]3c3ccccc3)CC2)c1=O [Example 21, 5-amino-3-({1-[(1R,2R)-4,4-difluoro-2-phenylcyclohexane-1-carbonyl]-4-hydroxypiperidin-4-yl}methyl)-6-[3-(pentafluoro-λ^6-sulfanyl)phenoxy]pyrimidin-4(3H)-one]
2 | 151 nM | Nc1c(Sc2ccccc2)ncn(CC2(O)CCN(C(=O)[C@@H]3CCC(F)(F)C[C@H]3c3ccccc3)CC2)c1=O [Example 30, 5-amino-3-({1-[(1R,2R)-4,4-difluoro-2-phenylcyclohexane-1-carbonyl]-4-hydroxypiperidin-4-yl}methyl)-6-(phenylsulfanyl)pyrimidin-4(3H)-one]
3 | 264 nM | Nc1c(Oc2cccc(C(F)(F)F)c2)ncn(CC2(O)CCN(C(=O)[C@@H]3CCC(F)(F)C[C@H]3c3ccccc3)CC2)c1=O [Example 22, 5-amino-3-({1-[(1R,2R)-4,4-difluoro-2-phenylcyclohexane-1-carbonyl]-4-hydroxypiperidin-4-yl}methyl)-6-[3-(trifluoromethyl)phenoxy]pyrimidin-4(3H)-one]
4 | 461 nM | Nc1c(Oc2ccc(F)cc2)ncn(CC2(O)CCN(C(=O)[C@@H]3CC[C@](O)(c4ccccc4)C[C@H]3c3ccccc3)CC2)c1=O (relative stereo) [Example 102, rel-5-amino-6-(4-fluorophenoxy)-3-[(4-hydroxy-1-{[(1R,2R,4R)-4-hydroxy-2,4-diphenylcyclohexyl]carbonyl}piperidin-4-yl)methyl]pyrimidin-4-one]
5 | 212 nM | Nc1c(Oc2cccnc2)ncn(CC2(O)CCN(C(=O)C3CCC(F)(F)CC3c3ccccc3)CC2)c1=O (stereo not drawn) [Example 84, 5-amino-3-({1-[(1,2-trans)-4,4-difluoro-2-phenylcyclohexane-1-carbonyl]-4-hydroxypiperidin-4-yl}methyl)-6-[(pyridin-3-yl)oxy]pyrimidin-4(3H)-one]
6 | 439 nM | N#Cc1ccc(Oc2ncn(CC3(O)CCN(C(=O)[C@@H]4CCC(F)(F)C[C@H]4c4ccccc4)CC3)c(=O)c2N)c(Cl)c1 [Example 53, 4-{[5-amino-1-([1-[(1R,2R)-4,4-difluoro-2-phenylcyclohexane-1-carbanyl]-4-hydroxypiperidin-4-yl]methyl)-6-oxo-1,6-dihydropyrimidin-4-yl]oxy}-3-chlorobenzonitrile]
7 | 312 nM | Nc1c(Oc2ccc(F)cc2)ncn(CC2(O)CCN(C(=O)[C@@H]3CC[C@@](O)(c4ccccc4)C[C@H]3c3ccccc3)CC2)c1=O (relative stereo) [Example 103, rel-5-amino-6-(4-fluorophenoxy)-3-[(4-hydroxy-1-{[(1R,2R,4S)-4-hydroxy-2,4-diphenylcyclohexyl]carbonyl}piperidin-4-yl)methyl]pyrimidin-4-one]
8 | 21.8 nM | Nc1c(Oc2ccc(F)cc2)ncn(CC2(O)CCN(C(=O)[C@@H]3CC[C@@](F)(C#Cc4ccccn4)C[C@H]3c3ccccc3)CC2)c1=O [Example 131, 5-amino-3-[(1-{[(1R,2R,4S)-4-fluoro-2-phenyl-4-[2-(pyridin-2-yl)ethynyl]cyclohexyl]carbonyl}-4-hydroxypiperidin-4-yl)methyl]-6-(4-fluorophenoxy)pyrimidin-4-one]
9 | 67 nM | NC(=O)c1ccc(Oc2ncn(CC3(O)CCN(C(=O)[C@@H]4CCC(F)(F)C[C@H]4c4ccccc4)CC3)c(=O)c2N)cc1 [Example 58, 4-{[5-amino-1-({1-[(1R,2R)-4,4-difluoro-2-phenylcyclohexane-1-carbonyl]-4-hydroxypiperidin-4-yl}methyl)-6-oxo-1,6-dihydropyrimidin-4-yl]oxy}benzamide]
10 | 247 nM | Nc1c(Oc2cccc(OC(F)(F)F)c2)ncn(CC2(O)CCN(C(=O)[C@@H]3CCC(F)(F)C[C@H]3c3ccccc3)CC2)c1=O [Example 18, 5-amino-3-({1-[(1R,2R)-4,4-difluoro-2-phenylcyclohexane-1-carbonyl]-4-hydroxypiperidin-4-yl}methyl)-6-[3-(trifluoromethoxy)phenoxy]pyrimidin-4(3H)-one]
11 | 85 nM | COC(=O)c1cccc(Oc2ncn(CC3(O)CCN(C(=O)[C@@H]4CCC(F)(F)C[C@H]4c4ccccc4)CC3)c(=O)c2N)c1 [Example 27, methyl 3-{[5-amino-1-({1-[(1R,2R)-4,4-difluoro-2-phenylcyclohexane-1-carbonyl]-4-hydroxypiperidin-4-yl}methyl)-6-oxo-1,6-dihydropyrimidin-4-yl]oxy}benzoate]
12 | 138 nM | CC(C)(O)c1cccc(Oc2ncn(CC3(O)CCN(C(=O)[C@@H]4CCC(F)(F)C[C@H]4c4ccccc4)CC3)c(=O)c2N)c1 [Example 49, 5-amino-3-({1-[(1R,2R)-4,4-difluoro-2-phenylcyclohexane-1-carbonyl]-4-hydroxypiperidin-4-yl}methyl)-6-[3-(2-hydroxypropan-2yl)phenoxy]pyrimidin-4(3H)-one]
13 | 119 nM | NCc1ccc(Oc2ncn(CC3(O)CCN(C(=O)[C@@H]4CCC(F)(F)C[C@H]4c4ccccc4)CC3)c(=O)c2N)c(Cl)c1 [Example 69, 5-amino-6-[4-(aminomethyl)-2-chlorophenoxyl]-3-({1-[(1R,2R)-4,4-difluoro-2-phenylcyclohexane-1-carbonyl]-4-hydroxypiperidin04-yl}methyl)pyrimidin-4(3H)-one]
14 | 86.2 nM | Nc1c(Oc2ccc([C@@H](N)C(F)(F)F)cc2)ncn(CC2(O)CCN(C(=O)[C@@H]3CCC(F)(F)C[C@H]3c3ccccc3)CC2)c1=O [Example 116, 5-amino-6-{4-[(1R)-1-amino-2,2,2-trifluoroethyl]phenoxy}-3-({1-[(1R,2R)-4,4-difluoro-2-phenylcyclohexane-1-carbonyl]-4-hydroypiperidin-4-yl}methyl)pyrimidin-4(3H)-one]
15 | 197 nM | Nc1c(Oc2ccc(F)cc2)ncn(CC2(O)CCN(C(=O)[C@@H]3CC[C@@](F)(C#Cc4ccccc4)C[C@H]3c3ccccc3)CC2)c1=O [Example 136, 5-amino-3-({1-[(1R,2R,4S)-4-fluoro-2-phenyl-4-(2-phenylethynyl)cyclobexanecarbonyl]-4-hydroxypiperidin-4-yl}methyl)-6-(4-fluorophenoxy)-3,4-dihydropyrimidin-4-one]
16 | 116 nM | Nc1c(Oc2ccc(CCF)cc2)ncn(CC2(O)CCN(C(=O)[C@@H]3CCC(F)(F)C[C@H]3c3ccccc3)CC2)c1=O [Example 39, 5-amino-3-({1-[(1R,2R)-4,4-difluoro-2-phenylcyclohexane-1-carbanyl]-4-hydroxypiperidin-4-yl}methyl)-6-[4-(2-fluoroethyl)phenoxy]pyrimidin4(3H)-one]
17 | 363 nM | Cn1ccnc1C[C@@]1(O)CC[C@@H](C(=O)N2CCC(O)(Cn3cnc(Oc4ccc(F)cc4)c(N)c3=O)CC2)[C@H](c2ccccc2)C1 (relative stereo) [Example 101, rel-5-amino-6-(4-fluorophenoxy)-3-({4-hydroxy-1-[(1R,2R,4R)-4-hydroxy-4-[(1-methyl-1H-imidazol-2-yl)methyl]-2-phenyl-cyclohexanecarbonyl]piperidin-4-yl)}methyl)-3,4-dihydropyrimidin-4-one]
18 | 140 nM | Nc1c(Oc2ccc(CN3CCOCC3)cc2)ncn(CC2(O)CCN(C(=O)[C@@H]3CCC(F)(F)C[C@H]3c3ccccc3)CC2)c1=O [Example 113, 5-amino-3-({1-[(1R,2R)-4,4-difluoro-2-phenylcyclohexane-1-carbonyl]-4-hydroxypiperidin-4-yl}methyl)-6-{4-[(morpholin-4-yl)methyl]phenoxyl}pyrimidin-4(3H)-one]
19 | 289 nM | C#C[C@@]1(O)CC[C@@H](C(=O)N2CCC(O)(Cn3cnc(Oc4ccc(F)cc4)c(N)c3=O)CC2)[C@H](c2ccccc2)C1 (relative stereo) [Example 91, rel-5-amino-3-([1-[(1R,2R,4R)-4-ethynyl-4-hydroxy-2-phenyl-cyclohexanecarbonyl]-4-hydroxypiperidin-4-yl]methyl)-6-(4-fluorophenoxy)-3,4-dihydropyrimidin-4-one]
20 | 183 nM | Nc1c(Oc2cccc(F)c2)ncn(CC2(O)CCN(C(=O)[C@@H]3CCC(F)(F)C[C@H]3c3ccccc3)CC2)c1=O [Example 6, 5-amino-3-({1-[(1R,2R)-4,4-difluoro-2-phenylcyclohexane-1-carbonyl]-4-hydroxypiperidin-4-yl}methyl)-6-(3-fluorophenoxy)pyrimidin-4(3H)-one]
21 | 1620 nM | Nc1c(Oc2cccc(C(=O)O)c2)ncn(CC2(O)CCN(C(=O)[C@@H]3CCC(F)(F)C[C@H]3c3ccccc3)CC2)c1=O [Example 63]
22 | 111 nM | Nc1c(Oc2ccc(F)cc2)ncn(CC2(O)CCN(C(=O)[C@@H]3CCC(F)(F)C[C@H]3c3ccco3)CC2)c1=O (relative stereo) [Example 88, 5-amino-3-({1-[(1,2-trans)-4,4-difluoro-2-(furan-2-yl)cyclohexane-1-carbonyl]-4-hydroxypiperidin-4-yl}methyl)-6-(4-fluorophenoxy)pyrimidin-4(3H)-one]

From US20210221785A1, “AMINO-PYRIMIDONYL DERIVATIVES, A PROCESS FOR THEIR PREPARATION AND PHARMACEUTICAL COMPOSITIONS CONTAINING THEM” (LES LABORATOIRES SERVIER, priority 2018, published 2021)
